Reference: ChEMBL document CHEMBL1158350, “Physicochemical and biological characterization of novel macrocycles derived from o-phthalaldehyde” (2009)
≈ marks a conversion by molar mass, not a printed value. Calls of active or inactive are those of the source. The rule behind the calls is not given here.

How the values were obtained:
Bacillus subtilis [1] = assay: Antibacterial activity against Bacillus subtilis MTCC 619 at 1000 ug/ml after 24 hrs by agar diffusion method; assay type: functional; conditions: MTCC 619, 24 h, read-out: IZ
Staphylococcus aureus [2] = assay: Antibacterial activity against Staphylococcus aureus MTCC 96 at 1000 ug/ml after 24 hrs by agar diffusion method; assay type: functional; conditions: MTCC 96, 24 h, read-out: IZ
Escherichia coli [3] = assay: Antibacterial activity against Escherichia coli MTCC 722 at 1000 ug/ml after 24 hrs by agar diffusion method; assay type: functional; conditions: MTCC 722, 24 h, read-out: IZ
Klebsiella pneumoniae [4] = assay: Antibacterial activity against Klebsiella pneumoniae MTCC 109 at 1000 ug/ml after 24 hrs by agar diffusion method; assay type: functional; conditions: MTCC 109, 24 h, read-out: IZ
Aspergillus flavus [5] = assay: Antifungal activity against Aspergillus flavus at 500 ug/ml after 3 days by diffusion method; assay type: functional, organism-based
Aspergillus flavus [6] = assay: Antifungal activity against Aspergillus flavus at 1000 ug/ml after 3 days by diffusion method; assay type: functional, organism-based
Fusarium [7] = assay: Antifungal activity against Fusarium at 500 ug/ml after 3 days by diffusion method; assay type: functional, organism-based
Fusarium [8] = assay: Antifungal activity against Fusarium at 1000 ug/ml after 3 days by diffusion method; assay type: functional, organism-based
Bacillus subtilis [9] = assay: Antibacterial activity against Bacillus subtilis MTCC 619 after 24 hrs by liquid dilution method; assay type: functional; conditions: MTCC 619, 24 h
Staphylococcus aureus [10] = assay: Antibacterial activity against Staphylococcus aureus MTCC 96 after 24 hrs by liquid dilution method; assay type: functional; conditions: MTCC 96, 24 h
Escherichia coli [11] = assay: Antibacterial activity against Escherichia coli MTCC 722 after 24 hrs by liquid dilution method; assay type: functional; conditions: MTCC 722, 24 h
Klebsiella pneumoniae [12] = assay: Antibacterial activity against Klebsiella pneumoniae MTCC 109 after 24 hrs by liquid dilution method; assay type: functional; conditions: MTCC 109, 24 h

Compound C1=N/c2cc3ccccc3cc2OCCCOc2cc3ccccc3cc2/N=C/c2ccccc2/1 has a zone of inhibition at 1000 µg/mL (Bacillus subtilis [1]) of 13 mm, a zone of inhibition at 1000 µg/mL (Staphylococcus aureus [2]) of 14 mm and a zone of inhibition at 1000 µg/mL (Escherichia coli [3]) of 13 mm. The zone of inhibition at 1000 µg/mL (Klebsiella pneumoniae [4]) was 11 mm, the Activity (Aspergillus flavus [5]) was “Active” and the Activity (Aspergillus flavus [6]) was “Active”. The Activity (Fusarium [7]) was “Active” and the Activity (Fusarium [8]) was “Active”.
With Cc1cccc2c1/N=C/c1ccccc1/C=N/c1c(C)cccc1OCCO2 the zone of inhibition at 1000 µg/mL (Bacillus subtilis [1]) was 12 mm, the zone of inhibition at 1000 µg/mL (Staphylococcus aureus [2]) was 14 mm and the zone of inhibition at 1000 µg/mL (Escherichia coli [3]) was 11 mm. For the same compound, the zone of inhibition at 1000 µg/mL (Klebsiella pneumoniae [4]) was 12 mm, the Activity (Aspergillus flavus [5]) was “Active” and the Activity (Aspergillus flavus [6]) was “Active”. The Activity (Fusarium [7]) was “Active” and the Activity (Fusarium [8]) was “Active”.
For Cc1ccc2c(c1)/N=C/c1ccccc1/C=N/c1cc(C)ccc1OCCO2, the zone of inhibition at 1000 µg/mL (Bacillus subtilis [1]) was 14 mm, the zone of inhibition at 1000 µg/mL (Staphylococcus aureus [2]) was 12 mm and the zone of inhibition at 1000 µg/mL (Escherichia coli [3]) was 13 mm. The zone of inhibition at 1000 µg/mL (Klebsiella pneumoniae [4]) was 10 mm, the Activity (Aspergillus flavus [5]) was “Active” and the Activity (Aspergillus flavus [6]) was “Active”. For the same compound, the Activity (Fusarium [7]) was “Active” and the Activity (Fusarium [8]) was “Active”.
Compound Cc1ccc2c(c1)/N=C/c1ccccc1/C=N/c1cc(C)ccc1OCCCO2 has a zone of inhibition at 1000 µg/mL (Bacillus subtilis [1]) of 13 mm, a zone of inhibition at 1000 µg/mL (Staphylococcus aureus [2]) of 14 mm and a zone of inhibition at 1000 µg/mL (Escherichia coli [3]) of 11 mm. The zone of inhibition at 1000 µg/mL (Klebsiella pneumoniae [4]) was 12 mm, the Activity (Aspergillus flavus [5]) was “Active” and the Activity (Aspergillus flavus [6]) was “Active”. For the same compound, the Activity (Fusarium [7]) was “Active” and the Activity (Fusarium [8]) was “Active”.
For C1=N/c2ncccc2OCCCOc2cccnc2/N=C/c2ccccc2/1, the zone of inhibition at 1000 µg/mL (Bacillus subtilis [1]) was 35 mm, the zone of inhibition at 1000 µg/mL (Staphylococcus aureus [2]) was 30 mm and the zone of inhibition at 1000 µg/mL (Escherichia coli [3]) was 32 mm. For the same compound, the zone of inhibition at 1000 µg/mL (Klebsiella pneumoniae [4]) was 29 mm, the MIC (Bacillus subtilis [9]) was 10 µg/mL (≈ 27.9 µM) and the MIC (Staphylococcus aureus [10]) was 2 µg/mL (≈ 5.58 µM). For the same compound, the MIC (Escherichia coli [11]) was 2 µg/mL (≈ 5.58 µM), the MIC (Klebsiella pneumoniae [12]) was 2 µg/mL (≈ 5.58 µM) and the Activity (Aspergillus flavus [5]) was “Active”. The Activity (Aspergillus flavus [6]) was “Active”, the Activity (Fusarium [7]) was “Active” and the Activity (Fusarium [8]) was “Active”.
Compound Cc1cccc2c1/N=C/c1ccccc1/C=N/c1c(C)cccc1OCCCO2 has a zone of inhibition at 1000 µg/mL (Bacillus subtilis [1]) of 13 mm, a zone of inhibition at 1000 µg/mL (Staphylococcus aureus [2]) of 15 mm and a zone of inhibition at 1000 µg/mL (Escherichia coli [3]) of 12 mm. The zone of inhibition at 1000 µg/mL (Klebsiella pneumoniae [4]) was 11 mm, the Activity (Aspergillus flavus [5]) was “Active” and the Activity (Aspergillus flavus [6]) was “Active”. The Activity (Fusarium [7]) was “Active” and the Activity (Fusarium [8]) was “Active”.
For C1=N/c2cc3ccccc3cc2OCCOc2cc3ccccc3cc2/N=C/c2ccccc2/1, the zone of inhibition at 1000 µg/mL (Bacillus subtilis [1]) was 15 mm, the zone of inhibition at 1000 µg/mL (Staphylococcus aureus [2]) was 15 mm and the zone of inhibition at 1000 µg/mL (Escherichia coli [3]) was 14 mm. For the same compound, the zone of inhibition at 1000 µg/mL (Klebsiella pneumoniae [4]) was 14 mm, the Activity (Aspergillus flavus [5]) was “Active” and the Activity (Aspergillus flavus [6]) was “Active”. For the same compound, the Activity (Fusarium [7]) was “Active” and the Activity (Fusarium [8]) was “Active”.
C1=N/c2ccccc2OCCCOc2ccccc2/N=C/c2ccccc2/1 was tested, and the zone of inhibition at 1000 µg/mL (Bacillus subtilis [1]) was 10 mm, the zone of inhibition at 1000 µg/mL (Staphylococcus aureus [2]) was 11 mm and the zone of inhibition at 1000 µg/mL (Escherichia coli [3]) was 11 mm. For the same compound, the zone of inhibition at 1000 µg/mL (Klebsiella pneumoniae [4]) was 12 mm, the Activity (Aspergillus flavus [5]) was “Active” and the Activity (Aspergillus flavus [6]) was “Active”. The Activity (Fusarium [7]) was “Active” and the Activity (Fusarium [8]) was “Active”.
Work on CC1(C)S[C@@H]2[C@H](NC(=O)[C@H](N)c3ccccc3)C(=O)N2[C@H]1C(=O)O [AMPICILLIN] yielded a zone of inhibition at 1000 µg/mL (Bacillus subtilis [1]) of 11 mm, a zone of inhibition at 1000 µg/mL (Staphylococcus aureus [2]) of 13 mm and a zone of inhibition at 1000 µg/mL (Escherichia coli [3]) of 8 mm. The zone of inhibition at 1000 µg/mL (Klebsiella pneumoniae [4]) was 7 mm.
C1=N/c2ncccc2OCCOc2cccnc2/N=C/c2ccccc2/1 showed a zone of inhibition at 1000 µg/mL (Bacillus subtilis [1]) of 38 mm, a zone of inhibition at 1000 µg/mL (Staphylococcus aureus [2]) of 35 mm and a zone of inhibition at 1000 µg/mL (Escherichia coli [3]) of 40 mm. The zone of inhibition at 1000 µg/mL (Klebsiella pneumoniae [4]) was 32 mm, the MIC (Bacillus subtilis [9]) was 10 µg/mL (≈ 29 µM) and the MIC (Staphylococcus aureus [10]) was 5 µg/mL (≈ 14.5 µM). For the same compound, the MIC (Escherichia coli [11]) was 1 µg/mL (≈ 2.9 µM), the MIC (Klebsiella pneumoniae [12]) was 2 µg/mL (≈ 5.81 µM) and the Activity (Aspergillus flavus [5]) was “Active”. The Activity (Aspergillus flavus [6]) was “Active”, the Activity (Fusarium [7]) was “Active” and the Activity (Fusarium [8]) was “Active”.
CO[C@H]1/C=C/O[C@@]2(C)Oc3c(C)c(O)c4c(O)c(c(/C=N/N5CCN(C)CC5)c(O)c4c3C2=O)NC(=O)/C(C)=C\C=C\[C@H](C)[C@H](O)[C@@H](C)[C@@H](O)[C@@H](C)[C@H](OC(C)=O)[C@@H]1C [RIFAMPIN] gave a zone of inhibition at 1000 µg/mL (Bacillus subtilis [1]) of 51 mm, a zone of inhibition at 1000 µg/mL (Staphylococcus aureus [2]) of 49 mm and a zone of inhibition at 1000 µg/mL (Escherichia coli [3]) of 48 mm. For the same compound, the zone of inhibition at 1000 µg/mL (Klebsiella pneumoniae [4]) was 45 mm, the MIC (Bacillus subtilis [9]) was 10 µg/mL (≈ 12.2 µM) and the MIC (Staphylococcus aureus [10]) was 0.25 µg/mL (≈ 0.304 µM). For the same compound, the MIC (Escherichia coli [11]) was 0.25 µg/mL (≈ 0.304 µM) and the MIC (Klebsiella pneumoniae [12]) was 0.25 µg/mL (≈ 0.304 µM).
For CN[C@@H]1[C@H](O[C@H]2[C@H](O[C@H]3[C@H](O)[C@@H](O)[C@H](N=C(N)N)[C@@H](O)[C@@H]3N=C(N)N)O[C@@H](C)[C@]2(O)C=O)O[C@@H](CO)[C@H](O)[C@H]1O [STREPTOMYCIN], the zone of inhibition at 1000 µg/mL (Bacillus subtilis [1]) was 10 mm, the zone of inhibition at 1000 µg/mL (Staphylococcus aureus [2]) was 12 mm and the zone of inhibition at 1000 µg/mL (Escherichia coli [3]) was 6 mm. It also gave a zone of inhibition at 1000 µg/mL (Klebsiella pneumoniae [4]) of 6 mm and an MIC (Bacillus subtilis [9]) of 2 µg/mL (≈ 3.44 µM).
Compound C1=N/c2ccccc2OCCOc2ccccc2/N=C/c2ccccc2/1 has a zone of inhibition at 1000 µg/mL (Bacillus subtilis [1]) of 11 mm, a zone of inhibition at 1000 µg/mL (Staphylococcus aureus [2]) of 12 mm and a zone of inhibition at 1000 µg/mL (Escherichia coli [3]) of 10 mm. The zone of inhibition at 1000 µg/mL (Klebsiella pneumoniae [4]) was 12 mm, the Activity (Aspergillus flavus [5]) was “Active” and the Activity (Aspergillus flavus [6]) was “Active”. The Activity (Fusarium [7]) was “Active” and the Activity (Fusarium [8]) was “Active”.
